“Also recorded” adds a separate entry of the source.
Tested on: myocardio ischemia mice
Assay: Heart rate in pituitrin acute myocardial ischemia model
Type: in vivo, Sprague-Dawley mice (SD mice)
Description: Embodiment 6: […] Pituitrin injection was purchased from Nanjing Xinbai Pharmaceutical Co., Ltd., normal saline injection from Nanjing Xiaoying Pharmaceutical Co., Ltd., and DMSO, PG, and anhydrous ethanol were of chromatographic class. […] The data were presented with, and tested with t. P<0.05 indicates substantial difference, P<0.01 indicates very substantial difference; and P<0.001 indicates extremely substantial difference.

## O=c1c(-c2ccc(O)cc2)coc2c([C@@H]3O[C@H](CO[C@]4(CO)O[C@H](CO)[C@@H](O)[C@@H]4O)[C@@H](O)[C@H](O)[C@H]3O)c(O)ccc12 [monofructosyl-β(2,6)-puerarin]
12.5 mg/kg, 5 s
  Heart rate: 433 ± 63 time · min^−1
12.5 mg/kg, 10 s
  Heart rate: 416 ± 79 time · min^−1
12.5 mg/kg, 15 s
  Heart rate: 411 ± 75 time · min^−1
12.5 mg/kg, 30 s
  Heart rate: 389 ± 72 time · min^−1
12.5 mg/kg, 1 min
  Heart rate: 347 ± 71 time · min^−1
12.5 mg/kg, 2 min
  Heart rate: 339 ± 57 time · min^−1
12.5 mg/kg, 5 min
  Heart rate: 349 ± 50 time · min^−1
12.5 mg/kg, 10 min
  Heart rate: 395 ± 45 time · min^−1
12.5 mg/kg, Normal
  Heart rate: 403 ± 54 time · min^−1
25 mg/kg, 5 s
  Heart rate: 476 ± 65 time · min^−1
25 mg/kg, 10 s
  Heart rate: 442 ± 81 time · min^−1
25 mg/kg, 15 s
  Heart rate: 405 ± 88 time · min^−1
25 mg/kg, 30 s
  Heart rate: 428 ± 65 time · min^−1
25 mg/kg, 1 min
  Heart rate: 403 ± 54 time · min^−1
25 mg/kg, 2 min
  Heart rate: 386 ± 41 time · min^−1
25 mg/kg, 5 min
  Heart rate: 375 ± 37 time · min^−1
25 mg/kg, 10 min
  Heart rate: 420 ± 43 time · min^−1
25 mg/kg, Normal
  Heart rate: 474 ± 68 time · min^−1
50 mg/kg, 5 s
  Heart rate: 485 ± 95 time · min^−1
50 mg/kg, 10 s
  Heart rate: 423 ± 84 time · min^−1
50 mg/kg, 15 s
  Heart rate: 420 ± 76 time · min^−1
50 mg/kg, 30 s
  Heart rate: 378 ± 34 time · min^−1
50 mg/kg, 1 min
  Heart rate: 327 ± 89 time · min^−1
50 mg/kg, 2 min
  Heart rate: 339 ± 45 time · min^−1
50 mg/kg, 5 min
  Heart rate: 347 ± 55 time · min^−1
50 mg/kg, 10 min
  Heart rate: 435 ± 72 time · min^−1
50 mg/kg, Normal
  Heart rate: 483 ± 91 time · min^−1
12.5, 25 and 50 mg/kg
  effect on heart rate restoration in words: has certain therapy effect on the heart disorder caused by myocardial ischemia; also recorded: has certain therapy effect on the heart disorder caused by myocardio ischemia

— US8598128B2, “Fructosylated puerarin, and preparation method and use thereof” (priority 2010, dated 2013)
